Results on 7 compounds are retold here after patent US20050176727A1, “Oximes and hydrazones that are useful in treating sexual dysfunction” (priority 2004, published 2005).

Structures are written as SMILES. Counter-ions that a name gives are not always drawn.

The term melting point denotes the temperature of the solid-liquid transition.

Tested on in the first series: not given
Experiment: not given
Settings: not given
In turn, `CC(C)O/N=C(\CCN1CCN(c2ccccn2)CC1)c1ccccc1` (as salt: maleate) [Example 31, (1E)-1-phenyl-3-(4-pyridin-2-ylpiperazin-1-yl)propan-1-one O-isopropyloxime] gave a melting point of 156 to 157 °C.

In turn, `O/N=C(\CCN1CCN(c2ccccn2)CC1)c1ccc(Cl)cc1` [Example 22, (1E)-1-(4-chlorophenyl)-3-(4-pyridin-2-ylpiperazin-1-yl)propan-1-one oxime] registered a melting point of 188 to 190 °C.

`ON=C(CCN1CCN(c2ccccn2)CC1)c1ccc(F)cc1` [Example 21, 1-(4-fluorophenyl)-3-(4-pyridin-2-ylpiperazin-1-yl)propan-1-one oxime] yielded a melting point of 159 to 160 °C.

On to `N#CCON=C(CCN1CCN(c2ccccn2)CC1)c1ccccc1` (as salt: maleate) [Example 29, ({[1-phenyl-3-(4-pyridin-2-ylpiperazin-1-yl)propylidene]amino}oxy)acetonitrile], for which the melting point lay in the range of 127 to 128 °C.

On to `CCCCON=C(CCN1CCN(c2ccccn2)CC1)c1ccccc1` (as salt: maleate) [Example 30, 1-phenyl-3-(4-pyridin-2-ylpiperazin-1-yl)propan-1-one O-butyloxime], for which the melting point lay within 154 to 155 °C.

In turn, `CON=C(c1ccc(Cl)cc1)C(C)CN1CCN(c2ccccn2)CC1` (stereo not shown) (as salt: maleate) [Example 39, 1-(4-chlorophenyl)-2-methyl-3-(4-pyridin-2-ylpiperazin-1-yl)propan-1-one O-methyloxime] registered a melting point of 152 to 153 °C.

The test system of another series is penile erection in Wistar rats. The series is described as follows: Rat penile erection model. It counts as in vivo. Conditions: reference compound. As to the method: Wistar rats were used as a primary animal model to study penile erection in vivo. All experiments were carried out between 9:00 AM and 3:00 PM in a diffusely illuminated testing room with a red light. Animals (n=8-30) were weighed and allowed to adapt to the testing room for 60 minutes before the beginning of experiments. Rats were placed individually in a transparent cage (20×30×30 cm) after drug injection.
As to `CN1CCc2cccc3c2[C@H]1Cc1ccc(O)c(O)c1-3` [apomorphine, (6aR) 5,6,6a,7-tetrahydro-6-methyl-4H-dibenzo[de,g]quinoline-10,11-diol], the most efficacious dose was determined as 0.1 µmol/kg.
